Measurements: ChEMBL document CHEMBL2384918, “Identification of Selective Nanomolar Inhibitors of the Human Neuraminidase, NEU4” (ACS Med Chem Lett, 2013)

Columns and labels:
Sialidase-3 = biological target: T1, Sialidase-3 (Homo sapiens, UniProt Q9UQ49); assay: Inhibition of human NEU3 using 4-MU-NANA as substrate preincubated for 15 mins before substrate addition measured after 30 mins by fluorescence plate reader analysis
T1 sequence (Q9UQ49 whole entry): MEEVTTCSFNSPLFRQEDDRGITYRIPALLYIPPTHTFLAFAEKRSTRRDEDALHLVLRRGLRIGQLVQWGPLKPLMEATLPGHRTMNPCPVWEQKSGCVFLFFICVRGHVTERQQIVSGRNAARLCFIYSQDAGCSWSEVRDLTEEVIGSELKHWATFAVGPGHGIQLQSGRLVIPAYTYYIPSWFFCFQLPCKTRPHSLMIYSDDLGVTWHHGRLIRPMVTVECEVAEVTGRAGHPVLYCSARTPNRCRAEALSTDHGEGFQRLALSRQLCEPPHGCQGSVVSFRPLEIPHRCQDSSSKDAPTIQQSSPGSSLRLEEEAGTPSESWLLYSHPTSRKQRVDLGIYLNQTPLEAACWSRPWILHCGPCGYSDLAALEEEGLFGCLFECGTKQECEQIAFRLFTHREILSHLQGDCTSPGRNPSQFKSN

Sialidase-1 = Sialidase-1 (Homo sapiens, UniProt Q99519); assay: Inhibition of human NEU1 using 4-MU-NANA as substrate preincubated for 15 mins before substrate addition measured after 30 mins by fluorescence plate reader analysis
Sialidase-4 [1] = biological target: T2, Sialidase-4 (Homo sapiens, UniProt Q8WWR8); assay: Inhibition of human NEU4 using 4-MU-NANA as substrate preincubated for 15 mins before substrate addition measured after 30 mins by fluorescence plate reader analysis
T2 sequence (Q8WWR8 whole entry): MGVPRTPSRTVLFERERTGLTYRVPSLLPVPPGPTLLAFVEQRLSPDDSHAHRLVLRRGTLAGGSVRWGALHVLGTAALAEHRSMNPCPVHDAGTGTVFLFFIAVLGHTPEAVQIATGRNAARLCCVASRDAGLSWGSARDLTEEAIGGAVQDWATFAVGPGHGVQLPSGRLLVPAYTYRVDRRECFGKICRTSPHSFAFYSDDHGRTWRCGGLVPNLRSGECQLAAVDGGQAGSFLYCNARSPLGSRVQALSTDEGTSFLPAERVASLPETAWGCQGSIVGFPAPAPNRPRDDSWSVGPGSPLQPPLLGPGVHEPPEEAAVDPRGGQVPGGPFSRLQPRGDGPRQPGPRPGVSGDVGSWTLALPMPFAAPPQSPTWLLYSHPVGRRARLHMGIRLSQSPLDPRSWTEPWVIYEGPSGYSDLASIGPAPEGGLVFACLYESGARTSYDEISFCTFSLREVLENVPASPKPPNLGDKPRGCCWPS

Sialidase-4 [2] = biological target: T2, Sialidase-4; assay: Inhibition of human NEU4 using 4-MU-NANA as substrate measured every 30 seconds for 60 mins by fluorescence plate reader analysis

| IC50 (Sialidase-3) [µM] | IC50 (Sialidase-1) [µM] | IC50 (Sialidase-4 [1]) [µM] | Ki (Sialidase-4 [2]) [µM] | Structure (SMILES) |
| --- | --- | --- | --- | --- |
| 80 | > 1000 | – | – | CC(=O)N[C@H]1[C@H]([C@H](O)[C@H](O)Cn2cc(CO)nn2)OC(C(=O)O)=C[C@@H]1O |
| 19.7 | 620 | 60 | – | CC(=O)N[C@H]1[C@H]([C@H](O)[C@H](O)CN=[N+]=[N-])OC(C(=O)O)=C[C@@H]1O |
| 38 | > 1000 | 0.81 | 0.06 | CC(=O)N[C@H]1[C@H]([C@H](O)[C@H](O)Cn2cc(CCO)nn2)OC(C(=O)O)=C[C@@H]1O |
| 4.7 | 29 | 4.5 | – | [N-]=[N+]=NCC(=O)N[C@H]1[C@H]([C@H](O)[C@H](O)CO)OC(C(=O)O)=C[C@@H]1O |
| 39 | 660 | 2.1 | – | CC(=O)N[C@H]1[C@H]([C@H](O)[C@H](O)Cn2cc(CCCO)nn2)OC(C(=O)O)=C[C@@H]1O |
| 5.5 | > 1000 | 1.7 | – | CC(=O)N[C@H]1[C@H]([C@H](O)[C@H](O)Cn2cc(COc3ccccc3)nn2)OC(C(=O)O)=C[C@@H]1O |
| > 1000 | > 1000 | 250 | – | O=C(Cn1cc(-c2ccccc2)nn1)N[C@H]1[C@H]([C@H](O)[C@H](O)CO)OC(C(=O)O)=C[C@@H]1O |
| 90 | 170 | 3.6 | – | CCOc1cn(C[C@@H](O)[C@@H](O)[C@@H]2OC(C(=O)O)=C[C@H](O)[C@H]2NC(C)=O)nn1 |
| – | > 1000 | 4 | – | CC(=O)N[C@H]1[C@H]([C@H](O)[C@H](O)Cn2cc(C(C)(C)O)nn2)OC(C(=O)O)=C[C@@H]1O |
| 4.6 | > 200 | 2.3 | – | CC(=O)N[C@H]1[C@H]([C@H](O)[C@H](O)Cn2cc(-c3ccccc3)nn2)OC(C(=O)O)=C[C@@H]1O |
